According to PubChem BioAssay (NCI):
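Dose response: 5 concentrations. Exposure: 48 h. Format: 96-well plates. Endpoint: linear interpolation; highest concentration if not reached. Abbreviation: GI50, concentration required for 50% inhibition of growth. The concentration for full growth arrest is given as TGI.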

Key:
Experiment in all cases: NCI tumour cell line growth inhibition, 48 h; in the data active = GI50 below about 0.43 µM; inactive = the rest
[1] = tested on: KM12 colon
[2] = tested on: DU-145 prostate
[3] = tested on: T-47D breast
[4] = tested on: OVCAR-8 ovarian
[5] = tested on: DLD-1 colon
[6] = tested on: SF-539 CNS
[7] = tested on: SN12K1 renal
[8] = tested on: DMS 114 small cell lung
[9] = tested on: M19-MEL melanoma
[10] = tested on: SNB-75 CNS
[11] = tested on: K-562 leukemia
[12] = tested on: HOP-62 NSCLC
[13] = tested on: UACC-257 melanoma
[14] = tested on: NCI-H226 lung
[15] = tested on: M14 melanoma
[16] = tested on: MDA-MB-435
[17] = tested on: SF-295 CNS
[18] = tested on: SF-268 CNS
[19] = tested on: A549 NSCLC
[20] = tested on: HT29 colon
[21] = tested on: U251 CNS
[22] = tested on: OVCAR-5 ovarian
[23] = tested on: SW-620 colon
[24] = tested on: EKVX NSCLC
[25] = tested on: MOLT-4 leukemia
[26] = tested on: LOX IMVI melanoma
[27] = tested on: RPMI-8226 leukemia
[28] = tested on: OVCAR-3 ovarian
[29] = tested on: HOP-92 NSCLC
[30] = tested on: SNB-19 CNS
[31] = tested on: HS 578T breast
[32] = tested on: UACC-62 melanoma
[33] = tested on: SK-MEL-2 melanoma
[34] = tested on: MCF7 breast

COC1C(OC(=O)/C=C/C=C/C=C/C=C/C(=O)O)CCC2(CO2)C1C1(C)OC1CC=C(C)C (stereo not drawn)
> 96.8 µM: TGI [17]
> 84.2 µM: TGI [13]
78.6 µM: TGI [27]
> 86.4 µM: TGI [10]
> 76.1 µM: TGI [29]
> 100 µM: TGI [2] | TGI [5] | TGI [6] | TGI [7] | TGI [8] | TGI [9] | TGI [12] | TGI [14] | TGI [18] | TGI [19] | TGI [22] | TGI [23] | TGI [30] | TGI [31] | TGI [34]
29.4 µM: TGI [1]
70.2 µM: TGI [3]
> 82.9 µM: TGI [24]
> 85.3 µM: TGI [33]
> 92 µM: TGI [4]
> 89.6 µM: TGI [11]
69.8 µM: TGI [15]
> 80.9 µM: TGI [28]
active: GI50 [12] 198 nM | GI50 [16] 105 nM | GI50 [17] 193 nM | GI50 [20] 181 nM | GI50 [21] 32 nM | GI50 [23] 272 nM | GI50 [26] 183 nM | GI50 [27] 165 nM | GI50 [32] 101 nM | GI50 [34] 172 nM
inactive: GI50 [1] 471 nM | GI50 [2] 651 nM | GI50 [3] 326 nM | GI50 [4] 301 nM | GI50 [6] 347 nM | GI50 [10] 287 nM | GI50 [13] 489 nM | GI50 [18] 388 nM | GI50 [19] 308 nM | GI50 [24] 436 nM | GI50 [25] 347 nM | GI50 [28] 314 nM | GI50 [29] 438 nM | GI50 [30] 277 nM
78.7 µM: TGI [25]
